The source of these data is PubChem BioAssay (NCI).

Test systems include NCI-H226 lung; TK-10 renal; HS 578T breast; ACHN renal; SK-MEL-28 melanoma; SNB-75 CNS; NCI-H522 lung; SK-MEL-2 melanoma; HCT-15 colon; HT29 colon; SF-268 CNS; M14 melanoma; DU-145 prostate; NCI/ADR-RES ovarian; HCC-2998 colon; OVCAR-8 ovarian.
What all share (assay): inhibition of tumour cell growth, NCI panel, 48 h

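Compound exposure: 48 hours, 5 concentrations, 96-well plates. The concentration for full growth arrest is given as TGI.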

Take `CO/N=C(/C(=O)OC)c1ccccc1COc1cccc(C(F)(F)F)c1`: the TGI is greater than 100 µM in the experiment with NCI-H226 lung; 55.4 µM with TK-10 renal; greater than 100 µM with HS 578T breast; greater than 100 µM with ACHN renal; greater than 100 µM in the experiment with SK-MEL-28 melanoma; greater than 100 µM in the experiment on SNB-75 CNS. For the same compound, the TGI with NCI-H522 lung was 70.2 µM; in the experiment on SK-MEL-2 melanoma it was greater than 100 µM; in the experiment on HCT-15 colon it was greater than 100 µM; with HT29 colon it was greater than 100 µM; in the experiment on SF-268 CNS it was greater than 100 µM; in the experiment on M14 melanoma it was greater than 100 µM. The TGI in the experiment on DU-145 prostate and in the experiment with NCI/ADR-RES ovarian was greater than 100 µM in each case.
For `Clc1ccc(-c2nnc(C34CC5CC(CC(C5)C3)C4)o2)cc1`, the TGI in the experiment with HCC-2998 colon, in the experiment on NCI-H226 lung, with HS 578T breast, in the experiment with ACHN renal, in the experiment with SK-MEL-28 melanoma and with SNB-75 CNS was greater than 100 µM each time. In addition, the TGI in the experiment on NCI-H522 lung, in the experiment with SK-MEL-2 melanoma, in the experiment with HCT-15 colon, in the experiment with HT29 colon, with SF-268 CNS and in the experiment with M14 melanoma was greater than 100 µM each time. In addition, the TGI with OVCAR-8 ovarian, in the experiment with DU-145 prostate and in the experiment with NCI/ADR-RES ovarian was greater than 100 µM in each case.
With `COc1ccc2c(c1)CCCN1Cc3ccccc3CC21` (centres undefined), the TGI in the experiment with HCC-2998 colon, in the experiment with NCI-H226 lung, with TK-10 renal, in the experiment with HS 578T breast, with ACHN renal and with SK-MEL-28 melanoma was greater than 100 µM each time. Besides, the TGI in the experiment on SNB-75 CNS, in the experiment on NCI-H522 lung, in the experiment on HCT-15 colon, with HT29 colon, in the experiment with SF-268 CNS and with M14 melanoma was greater than 100 µM each time. For the same compound, the TGI in the experiment on OVCAR-8 ovarian, in the experiment on DU-145 prostate and in the experiment on NCI/ADR-RES ovarian was greater than 100 µM each time.
In the case of `CCN1C[C@]2(C)CC[C@H](OCc3ccccc3)C34C5C[C@@H]6CC[C@](O)(C(C[C@@H]32)C14)C5[C@H]6OCc1ccccc1` (some centres undefined), the TGI in the experiment on HCC-2998 colon, in the experiment on NCI-H226 lung, in the experiment on TK-10 renal, with HS 578T breast, in the experiment with ACHN renal and in the experiment with SK-MEL-28 melanoma was greater than 100 µM throughout. For the same compound, the TGI in the experiment on SNB-75 CNS, with SK-MEL-2 melanoma, with HCT-15 colon, in the experiment with HT29 colon, in the experiment with SF-268 CNS and with M14 melanoma was greater than 100 µM throughout. The TGI in the experiment with OVCAR-8 ovarian, with DU-145 prostate and in the experiment with NCI/ADR-RES ovarian was greater than 100 µM throughout.
On to `O=C(/C=C(\O)c1ccc(Cl)cc1)C(=O)NN=C(c1ccccc1)c1ccccc1`, for which the TGI with HCC-2998 colon is greater than 100 µM; in the experiment with NCI-H226 lung it was greater than 100 µM; with TK-10 renal, greater than 100 µM; with HS 578T breast it was 85.3 µM; in the experiment with ACHN renal, greater than 100 µM; with SNB-75 CNS, greater than 100 µM. Besides, the TGI in the experiment on NCI-H522 lung is 49 µM; with SK-MEL-2 melanoma it was greater than 100 µM; in the experiment on HCT-15 colon, greater than 100 µM; in the experiment on HT29 colon it was greater than 100 µM; in the experiment on SF-268 CNS, greater than 100 µM; in the experiment with M14 melanoma it was greater than 100 µM. The figures for the TGI in the experiment on OVCAR-8 ovarian, in the experiment on DU-145 prostate and with NCI/ADR-RES ovarian were 97.6 µM, greater than 100 µM and 50.3 µM, respectively.
Turning to `O=C1NC(=NC2CCCCC2)C2(CCN(CCCC3(c4ccc(F)cc4)OCCO3)CC2)N1c1ccccc1`, the TGI in the experiment with NCI-H226 lung came to 44.3 µM; with TK-10 renal, 32.7 µM; in the experiment on HS 578T breast it was 35 µM; in the experiment with ACHN renal it was 28.4 µM; in the experiment on SK-MEL-28 melanoma it was 35.6 µM; with SNB-75 CNS, 29.8 µM. The TGI worked out at 34.1 µM in the experiment with NCI-H522 lung; 30.2 µM with SK-MEL-2 melanoma; 36.9 µM in the experiment with HCT-15 colon; 33.1 µM in the experiment with HT29 colon; 42.2 µM with SF-268 CNS; 41.5 µM in the experiment on M14 melanoma. In addition, the TGI is 64.9 µM in the experiment with OVCAR-8 ovarian, 33.8 µM in the experiment on DU-145 prostate and 66.8 µM with NCI/ADR-RES ovarian.
With `O=C1c2ccccc2-c2c1c(-c1ccccc1)c1n2C2(C(=O)c3ccccc3C2=O)C2C(=O)N(c3ccccc3)C(=O)C12` (centres undefined), the TGI in the experiment with NCI-H226 lung was 43.5 µM; in the experiment with TK-10 renal, greater than 100 µM; in the experiment on HS 578T breast it was 63.7 µM; in the experiment on ACHN renal, greater than 100 µM; in the experiment on SK-MEL-28 melanoma, greater than 100 µM; in the experiment with SNB-75 CNS, 79.2 µM. Further, the TGI in the experiment with NCI-H522 lung was 33.6 µM; with SK-MEL-2 melanoma, 51.4 µM; in the experiment on HCT-15 colon, 42.8 µM; with HT29 colon it was 41.6 µM; with SF-268 CNS it was 65.6 µM; in the experiment on M14 melanoma, greater than 100 µM. Further, the TGI in the experiment with OVCAR-8 ovarian, in the experiment on DU-145 prostate and with NCI/ADR-RES ovarian was greater than 100 µM each time.
Take `[C-]#[N+]C1(C(=O)OCC)CC1`: the TGI in the experiment with HCC-2998 colon, with NCI-H226 lung, with TK-10 renal, in the experiment with HS 578T breast, with ACHN renal and with SK-MEL-28 melanoma was greater than 100 µM each time. In addition, the TGI with SNB-75 CNS, in the experiment on NCI-H522 lung, in the experiment with HCT-15 colon, with HT29 colon, with SF-268 CNS and in the experiment on M14 melanoma was greater than 100 µM throughout. Further, the TGI in the experiment with OVCAR-8 ovarian, in the experiment with DU-145 prostate and in the experiment with NCI/ADR-RES ovarian was greater than 100 µM throughout.
For `NS(=O)(=O)c1nnc(/N=C(/CCC(=O)O)C(=O)O)s1`, the TGI in the experiment with HCC-2998 colon, in the experiment on NCI-H226 lung, with TK-10 renal, in the experiment on HS 578T breast, in the experiment with ACHN renal and with SK-MEL-28 melanoma was greater than 100 µM each time. Further, the TGI in the experiment with SNB-75 CNS, with NCI-H522 lung, in the experiment on SK-MEL-2 melanoma, in the experiment with HCT-15 colon, in the experiment on HT29 colon and with M14 melanoma was greater than 100 µM in each case. Moreover, the TGI with OVCAR-8 ovarian, in the experiment with DU-145 prostate and in the experiment with NCI/ADR-RES ovarian was greater than 100 µM throughout.
